Experimental data reported in doi:10.1101/2022.02.09.479835v1 (biorxiv, 2022).
pIC50: −log10 of the molar value. Where a SMILES comes first, the peptide text is derived from it. The star is where a group is joined. Cbz = O=C(OCc1ccccc1)*

Assays:
[1] = biological target: human CatL (cathepsin-L, CTSL) (Homo sapiens, UniProt P07711); assay: FRET peptide cleavage HTS; format: biochemical; details: read-out: % inhibition at 20 uM
3CL-Pro = 3CL-Pro (Severe acute respiratory syndrome coronavirus 2, UniProt P0DTD1); assay: biochemical

Chain of human CatL (cathepsin-L, CTSL) (P07711 114-288): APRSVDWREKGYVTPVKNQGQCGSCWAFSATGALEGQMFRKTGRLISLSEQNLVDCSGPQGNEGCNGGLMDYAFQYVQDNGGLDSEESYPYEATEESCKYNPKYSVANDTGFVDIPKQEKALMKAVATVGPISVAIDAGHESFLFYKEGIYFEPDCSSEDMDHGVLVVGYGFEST
Chain of human CatL (cathepsin-L, CTSL) (P07711 292-333): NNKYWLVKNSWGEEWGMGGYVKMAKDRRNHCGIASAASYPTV

`CC(=O)N[C@@H](CC(C)C)C(=O)N[C@@H](CC(C)C)C(=O)N[C@H](C=O)CCCNC(=N)N` [leupeptin hemisulfate] gave an inhibition at 20 µM [1] of over 50%.
Compound `CC(C)C[C@H](NC(=O)OCc1ccccc1)C(=O)N[C@@H](C[C@@H]1CCNC1=O)C(O)S(=O)(=O)O` (stereo partly drawn) [GC-376] has an inhibition at 20 µM [1] of over 50%.
`CCCN1CCN(c2ccc(C(=O)NC3(C(=O)NCC#N)CCCCC3)cc2)CC1` [balicatib] showed an inhibition at 20 µM [1] of over 50%.
In the case of `C[C@H](NC(=O)[C@H](Cc1ccccc1)NC(=O)OCc1ccccc1)C(=O)CF` [Z-FA-FMK], the inhibition at 20 µM [1] was over 50% and the pIC50 (3CL-Pro) was 5.01.
In the case of `CC(C)C[C@@H](C=O)NC(=O)[C@H](CC(C)C)NC(=O)[C@H](CC(C)C)NC(=O)OCc1ccccc1` [MG-132] (Cbz-Leu-Leu-Leu-aldehyde), the inhibition at 20 µM [1] was over 50%.
